Laboratory results taken from PubChem BioAssay (NCI).
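These data come from cells grown in 96-well plates and exposed to compound for 48 hours at five concentrations. Definition used: TGI = concentration required for complete inhibition of growth.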

Key:
Test in all cases: inhibition of tumour cell growth, NCI panel, 48 h
786-0 renal = tested on: 786-0 renal
A498 renal = tested on: A498 renal
A549 NSCLC = tested on: A549 NSCLC
ACHN renal = tested on: ACHN renal
BT-549 breast = tested on: BT-549 breast
CCRF-CEM leukemia = tested on: CCRF-CEM leukemia
COLO 205 colon = tested on: COLO 205 colon
DU-145 prostate = tested on: DU-145 prostate
EKVX NSCLC = tested on: EKVX NSCLC
HCC-2998 colon = tested on: HCC-2998 colon
HCT-116 colon = tested on: HCT-116 colon
HCT-15 colon = tested on: HCT-15 colon
HOP-62 NSCLC = tested on: HOP-62 NSCLC
HOP-92 NSCLC = tested on: HOP-92 NSCLC
HS 578T breast = tested on: HS 578T breast
HT29 colon = tested on: HT29 colon
IGROV1 ovarian = tested on: IGROV1 ovarian
LOX IMVI melanoma = tested on: LOX IMVI melanoma
M14 melanoma = tested on: M14 melanoma
MALME-3M melanoma = tested on: MALME-3M melanoma
MCF7 breast = tested on: MCF7 breast
MDA-MB-231 breast = tested on: MDA-MB-231 breast
MDA-N = tested on: MDA-N
NCI-H226 lung = tested on: NCI-H226 lung
NCI-H23 lung = tested on: NCI-H23 lung
NCI-H460 lung = tested on: NCI-H460 lung
NCI-H522 lung = tested on: NCI-H522 lung
NCI/ADR-RES ovarian = tested on: NCI/ADR-RES ovarian
OVCAR-5 ovarian = tested on: OVCAR-5 ovarian
OVCAR-8 ovarian = tested on: OVCAR-8 ovarian
PC-3 prostate = tested on: PC-3 prostate
RXF 393 renal = tested on: RXF 393 renal
SF-268 CNS = tested on: SF-268 CNS
SF-295 CNS = tested on: SF-295 CNS
SK-MEL-2 melanoma = tested on: SK-MEL-2 melanoma
SK-MEL-28 melanoma = tested on: SK-MEL-28 melanoma
SK-MEL-5 melanoma = tested on: SK-MEL-5 melanoma
SK-OV-3 ovarian = tested on: SK-OV-3 ovarian
SN12C renal = tested on: SN12C renal
SNB-19 CNS = tested on: SNB-19 CNS
SNB-75 CNS = tested on: SNB-75 CNS
SW-620 colon = tested on: SW-620 colon
T-47D breast = tested on: T-47D breast
TK-10 renal = tested on: TK-10 renal
U251 CNS = tested on: U251 CNS
UACC-257 melanoma = tested on: UACC-257 melanoma
UACC-62 melanoma = tested on: UACC-62 melanoma
UO-31 renal = tested on: UO-31 renal
CAKI-1 renal = tested on: CAKI-1 renal
HL-60(TB) leukemia = tested on: HL-60(TB) leukemia
K-562 leukemia = tested on: K-562 leukemia
MDA-MB-435 = tested on: MDA-MB-435
MOLT-4 leukemia = tested on: MOLT-4 leukemia
OVCAR-3 ovarian = tested on: OVCAR-3 ovarian
OVCAR-4 ovarian = tested on: OVCAR-4 ovarian
RPMI-8226 leukemia = tested on: RPMI-8226 leukemia
SF-539 CNS = tested on: SF-539 CNS
SR leukemia = tested on: SR leukemia
KM12 colon = tested on: KM12 colon

Measured: TGI

CCC1CCN=C(Cn2cc(C)c(=O)[nH]c2=O)N1 (stereo not drawn)
> 100 µM: 786-0 renal | A498 renal | A549 NSCLC | ACHN renal | BT-549 breast | CCRF-CEM leukemia | COLO 205 colon | DU-145 prostate | EKVX NSCLC | HCC-2998 colon | HCT-116 colon | HCT-15 colon | HOP-62 NSCLC | HOP-92 NSCLC | HS 578T breast | HT29 colon | IGROV1 ovarian | LOX IMVI melanoma | M14 melanoma | MALME-3M melanoma | MCF7 breast | MDA-MB-231 breast | MDA-N | NCI-H226 lung | NCI-H23 lung | NCI-H460 lung | NCI-H522 lung | NCI/ADR-RES ovarian | OVCAR-5 ovarian | OVCAR-8 ovarian | PC-3 prostate | RXF 393 renal | SF-268 CNS | SF-295 CNS | SK-MEL-2 melanoma | SK-MEL-28 melanoma | SK-MEL-5 melanoma | SK-OV-3 ovarian | SN12C renal | SNB-19 CNS | SNB-75 CNS | SW-620 colon | T-47D breast | TK-10 renal | U251 CNS | UACC-257 melanoma | UACC-62 melanoma | UO-31 renal

COc1cc(OC)nc(NC(=O)NS(=O)(=O)c2cccc3ncn(C)c(=O)c23)n1
> 100 µM: 786-0 renal | A498 renal | A549 NSCLC | ACHN renal | CAKI-1 renal | CCRF-CEM leukemia | COLO 205 colon | DU-145 prostate | EKVX NSCLC | HCT-116 colon | HCT-15 colon | HL-60(TB) leukemia | HOP-62 NSCLC | HOP-92 NSCLC | HS 578T breast | HT29 colon | IGROV1 ovarian | K-562 leukemia | LOX IMVI melanoma | M14 melanoma | MALME-3M melanoma | MCF7 breast | MDA-MB-231 breast | MDA-MB-435 | MDA-N | MOLT-4 leukemia | NCI-H226 lung | NCI-H23 lung | NCI-H522 lung | NCI/ADR-RES ovarian | OVCAR-3 ovarian | OVCAR-4 ovarian | OVCAR-5 ovarian | OVCAR-8 ovarian | RPMI-8226 leukemia | RXF 393 renal | SF-268 CNS | SF-295 CNS | SF-539 CNS | SK-MEL-2 melanoma | SK-MEL-5 melanoma | SK-OV-3 ovarian | SN12C renal | SNB-19 CNS | SNB-75 CNS | SR leukemia | SW-620 colon | T-47D breast | TK-10 renal | U251 CNS | UACC-257 melanoma | UACC-62 melanoma | UO-31 renal

Clc1cccc(Cl)c1C1SCc2nc3ncccc3n21 (stereo not drawn)
> 100 µM: 786-0 renal | A498 renal | A549 NSCLC | ACHN renal | CAKI-1 renal | CCRF-CEM leukemia | COLO 205 colon | DU-145 prostate | EKVX NSCLC | HCC-2998 colon | HCT-116 colon | HCT-15 colon | HL-60(TB) leukemia | HOP-62 NSCLC | HS 578T breast | HT29 colon | IGROV1 ovarian | K-562 leukemia | KM12 colon | LOX IMVI melanoma | M14 melanoma | MALME-3M melanoma | MDA-MB-231 breast | MDA-MB-435 | MDA-N | MOLT-4 leukemia | NCI-H226 lung | NCI-H23 lung | NCI-H460 lung | NCI-H522 lung | NCI/ADR-RES ovarian | OVCAR-3 ovarian | OVCAR-4 ovarian | OVCAR-5 ovarian | OVCAR-8 ovarian | PC-3 prostate | RPMI-8226 leukemia | RXF 393 renal | SF-268 CNS | SF-295 CNS | SF-539 CNS | SK-MEL-2 melanoma | SK-MEL-28 melanoma | SK-MEL-5 melanoma | SK-OV-3 ovarian | SN12C renal | SNB-19 CNS | SNB-75 CNS | SR leukemia | SW-620 colon | T-47D breast | TK-10 renal | U251 CNS | UACC-257 melanoma | UACC-62 melanoma | UO-31 renal

CCCCC/C(=N\c1nc[nH]c1C(N)=O)OCC
> 100 µM: 786-0 renal | A498 renal | A549 NSCLC | ACHN renal | BT-549 breast | CAKI-1 renal | CCRF-CEM leukemia | COLO 205 colon | DU-145 prostate | EKVX NSCLC | HCC-2998 colon | HCT-116 colon | HCT-15 colon | HL-60(TB) leukemia | HOP-62 NSCLC | HS 578T breast | HT29 colon | IGROV1 ovarian | K-562 leukemia | KM12 colon | LOX IMVI melanoma | M14 melanoma | MALME-3M melanoma | MCF7 breast | MDA-MB-231 breast | MDA-MB-435 | MDA-N | MOLT-4 leukemia | NCI-H226 lung | NCI-H23 lung | NCI-H460 lung | NCI-H522 lung | NCI/ADR-RES ovarian | OVCAR-3 ovarian | OVCAR-4 ovarian | OVCAR-5 ovarian | OVCAR-8 ovarian | PC-3 prostate | RPMI-8226 leukemia | RXF 393 renal | SF-268 CNS | SF-295 CNS | SF-539 CNS | SK-MEL-2 melanoma | SK-MEL-28 melanoma | SK-MEL-5 melanoma | SK-OV-3 ovarian | SN12C renal | SNB-19 CNS | SR leukemia | SW-620 colon | TK-10 renal | U251 CNS | UACC-257 melanoma | UACC-62 melanoma | UO-31 renal
